{"source": "patent US11685710B2", "about": "“Cationic sulfonamide amino lipids and amphiphilic zwitterionic amino lipids” (The Board of Regents of the University of Texas System, priority 2016, dated 2023)", "key": {"[1]": {"system": "HeLa-Luc-Cas9 cells", "experiment": "sgRNA delivery to HeLa-Luc-Cas9 cells (luciferase editing, ONE-Glo+Tox)", "assay_type": "cell-based", "procedure": "sgRNA delivery to HeLa-Luc-Cas9 cells: Select ZALs were evaluated in the delivery of single guide RNA (sgRNA) to HeLa-Luc-Cas9 cells. In a white opaque 96-well plate tissue culture plate, HeLa-Luc-Cas9 cells were seeded at a density of 5×10^3 cells per well in 100 μL growth medium (DMEM without phenol red, 5% FBS), and allowed to attach overnight and then supplemented with an additional 100 μL DMEM. ZALs-sgRNA nanoparticles were formulated using the in vitro nanoparticle formulation protocol at the indicated lipid composition and weight ratio (maintaining 50:38.5 ZAL:cholesterol mole ratio, tuningPEG-lipid additive from 5% to 0.5%, and tuning weight ratio from 20:1 ZAL:sgRNA to 5:1 ZAL:sgRNA). Luciferase deletion was evaluated using a single guide RNA designed against luciferase using the CRISPR.mit.edu algorithm, while non-targeting control sgRNA (sgScr) was used as a negative control. The nanoparticles were added to the cells at a dose of 50 ng sgRNA per well and incubated with the cells for 24 h or 48 h. RNAiMax (Invitrogen) formulated according to the manufacturer's protocol with sgLuc or sgScr was used as a positive control. After 24 h or 48 h, the cell viability and luciferase expression were evaluated with the ONE-Glo+Tox Assay cell viability and luciferase assay (Promega).\nSelect ZALs were evaluated in the delivery of single guide RNA (sgRNA) to HeLa-Luc-Cas9 cells. In a white opaque 96-well plate tissue culture plate, HeLa-Luc-Cas9 cells were seeded at a density of 5×10^3 cells per well in 100 μL growth medium (DMEM without phenol red, 5% FBS), and allowed to attach overnight and then supplemented with an additional 100 μL DMEM. ZNPs encapsulating sgRNA were formulated using the in vitro nanoparticle formulation protocol at the indicated lipid composition and weight ratio (maintaining 50:38.5 (ZAL:cholesterol mole ratio), tuning PEG-lipid additive from 5% to 0.5%, and tuning weight ratio from 20:1 ZAL:sgRNA to 5:1 ZAL:sgRNA). Non-targeting control sgRNA (sgCtrl) was used as a negative control. The nanoparticles were added to the cells at the appropriate dose of sgRNA and incubated with the cells for 48 h. The cell viability and luciferase expression were evaluated with the ONE-Glo+Tox Assay (Promega), normalized to untreated cells (N=4+/−standard deviation)."}, "[2]": {"experiment": "In vivo luciferase mRNA delivery (bioluminescence imaging)", "set-up": "species or system mice", "conditions": "Luc mRNA i.v., 24 h; athymic nude 1 mg/kg, C57BL/6 4 mg/kg, NSG 1 mg/kg", "procedure": "In vivo luciferase mRNA delivery: All experiments were approved by the Institutional Animal Care & Use Committee (IACUC) of The University of Texas Southwestern Medical Center and were consistent with local, state and federal regulations as applicable. ZA3-Ep10 ZAL was formulated with in vivo formulation at 50 ZAL:38.5 cholesterol: 2 or 0.5 PEG-lipid mole ratio in the lipid mix, and 7.5:1 ZAL:mRNA weight ratio. Athymic Nude-Foxn1^nu mice (Harlan Laboratories) were injected with ZAL-mRNA NPs at a dose of 1 mg/kg via tail vein injection or intraperiotneal injection. After 24 h and 48 h the luciferase expression was evaluated by live animal bioluminescence imaging Animals were anesthetized under isofluorane, and D-luciferin monosodium hydrate (GoldBio) substrate was injected IP. […]\nAll experiments were approved by the Institutional Animal Care & Use Committee (IACUC) of The University of Texas Southwestern Medical Center and were consistent with local, state and federal regulations as applicable. […] After 24 h and 48 h the luciferase expression was evaluated by live animal bioluminescence imaging Animals were anesthetized under isofluorane, and D-luciferin monosodium hydrate (GoldBio) substrate was injected subcutaneously in the neck scruff. […]"}, "[3]": {"system": "HeLa-Luc-Cas9 cells; IGROV1 cells", "experiment": "Delivery efficacy of ZA3-Ep10 versus cationic structural analogue (siLuc, sgLuc, Luc mRNA)", "assay_type": "cell-based", "conditions": "siRNA, sgRNA and mRNA cargos; 7.5:1 weight ratio", "procedure": "The ZNP or LNP formulation was fixed at 7.5:1 weight ratio ZAL or Cationic analogue to RNA. The lipid mixture for the NPs was 50:38.5:0.5 ZAL or cationic analogue: cholesterol: PEG-lipid, while for the A3-Ep14 NPs the zwitterionic phospholipid was titrated from 0 to 50% in the lipid mix. The nanoparticles were formulated by manual mixing using the in vitro formulation protocol. RNA binding was determined by the Ribogreen assay (N=3+/−standard deviation), while nanoparticle size was determined by dynamic light scattering (N=3+/−standard deviation). Luciferase silencing or editing of siLuc and sgLuc NPs was assayed in HeLa-Luc-Cas9 cells (7.35 nM sgRNA, 17.9 nM siRNA), while luciferase expression by Luc mRNA NPs was evaluated in IGROV1 cells (0.77 nM mRNA). Cells were assays after 40 h incubation time by the One-Glo+Tox assay and plotted with viability (dots) and luciferase expression (bars) as mean+/−standard deviation (N=4)."}, "[4]": {"conditions": "PEG 2%, 1%, 0.5%, ZAL:sgRNA 20:1, 10:1, 7.5:1, 5:1, 7.4 nM, 48 h"}}, "note": "Entries after “also recorded” stand apart in the source; their conditions may differ."}
{"smiles": "CCCCCCCCC(O)CN(CCC(=O)NCC[N+](C)(C)CCCS(=O)(=O)[O-])CCN(CCN(CC(O)CCCCCCCC)CC(O)CCCCCCCC)CCN(CC(O)CCCCCCCC)CC(O)CCCCCCCC", "note": "(stereo not shown) [ZA3-Ep10]", "values": [{"measurement": "formulation with the best luciferase editing", "setting": "[1]; [4]", "result": "7.5:1 weight ratio and 0.5% PEG"}, {"measurement": "sgLuc delivery by formulations with tuned PEG content and weight ratio", "setting": "[1]; [4]", "result": "potent"}, {"measurement": "sgRNA (sgLuc) delivery, rank among lead ZALs", "setting": "[1]; lead ZALs from the siRNA screen, HeLa-Luc-Cas9 cells, 48 h", "result": "most highly potent; also recorded: efficacious"}, {"measurement": "luciferase expression versus sgRNA dose", "setting": "[1]; sgLuc ZNPs, HeLa-Luc-Cas9 cells", "result": "dose-dependent decrease"}, {"measurement": "luciferase silencing", "setting": "[1]; sgRNA at 14.7 nM and 7.4 nM, 48 h, ZNPs 50:38.5:1 ZAL:cholesterol:PEG-lipid, 20:1 ZAL:sgRNA weight ratio", "result": "> 95", "unit": "%"}, {"measurement": "tissues with expression of luciferase", "setting": "[2]", "result": "liver, lung and spleen"}, {"measurement": "efficacy compared with cationic analogue", "setting": "[3]", "result": "outperformed the cationic analogue supplemented with phospholipid"}]}
